The text below walks through data of patent US20160159814A1, “GLYCINE TRANSPORTER INHIBITOR” (TAISHO PHARMACEUTICAL CO., LTD., priority 2013, published 2016).

The target of the experiment is T1, human type 1 glycine transporter (GlyT1) (Homo sapiens, UniProt P48067).
T1 construct: T98G cells (glioma cells) expressing human type 1 glycine transporter (GlyT1) were used; endogenous in cells; host or cells: T98G cells (human glioma cells)
T1 sequence (P48067 1-706): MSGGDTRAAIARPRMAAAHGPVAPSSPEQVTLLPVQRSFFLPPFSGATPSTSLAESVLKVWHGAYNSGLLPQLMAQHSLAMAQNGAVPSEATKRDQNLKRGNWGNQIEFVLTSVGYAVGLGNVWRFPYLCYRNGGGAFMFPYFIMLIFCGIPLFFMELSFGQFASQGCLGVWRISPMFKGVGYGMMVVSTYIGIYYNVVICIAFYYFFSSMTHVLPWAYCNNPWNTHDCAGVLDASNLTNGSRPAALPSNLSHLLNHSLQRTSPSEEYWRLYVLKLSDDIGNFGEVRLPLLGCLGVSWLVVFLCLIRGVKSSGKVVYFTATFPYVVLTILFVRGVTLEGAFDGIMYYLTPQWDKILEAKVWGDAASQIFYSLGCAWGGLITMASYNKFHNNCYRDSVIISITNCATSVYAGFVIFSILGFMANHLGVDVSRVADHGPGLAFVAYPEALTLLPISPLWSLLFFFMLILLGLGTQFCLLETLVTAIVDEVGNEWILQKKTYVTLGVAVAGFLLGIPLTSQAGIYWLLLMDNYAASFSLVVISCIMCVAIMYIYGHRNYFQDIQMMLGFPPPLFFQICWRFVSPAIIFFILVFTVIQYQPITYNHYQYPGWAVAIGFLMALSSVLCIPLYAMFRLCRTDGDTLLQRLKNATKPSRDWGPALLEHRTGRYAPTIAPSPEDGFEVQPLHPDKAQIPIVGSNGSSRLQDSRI
As to the kind of experiment: Glycine uptake inhibition experiment ([3H] glycine uptake in T98G cells expressing GlyT1). In kind it is cell-based. An outline of the steps: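 T98G glioma cells expressing human GlyT1 were pretreated 10 min with compound in HEPES buffer pH 7.4 (0.2% BSA), then incubated with compound plus 250 nM final [3H]glycine for 15 min at room temperature. Intracellular radioactivity was counted after NaOH lysis; 10 μM ALX5407 defined non-specific uptake. IC50 came from 10^−9–10^−5 M curves.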

Read-outs that look alike come from different tables or passages of the source.

In turn, `CCOc1ccc(CN2C(=O)C(F)(F)c3c(C(O)C(F)F)cccc32)cn1` (single isomer, unassigned) [Compound 278, 4-(2,2-difluoro-1-hydroxyethyl)-1-[(6-ethoxypyridin-3-yl)methyl]-3,3-difluoro-1,3-dehydro-2H-indol-2-one] yielded an IC50 of 210 nM.

The compound `C[C@H](O)c1cccc2c1C(F)(F)C(=O)N2Cc1ncc(Cl)cc1C#N` [Compound 242] showed a concentration for half-maximal inhibition (IC50) of 83 nM.

`N#Cc1cc(CN2C(=O)C(F)(F)c3c(C(O)C(F)F)cccc32)ccn1` (single isomer, unassigned) [Compound 109, 4-{[4-(2,2-difluoro-1-hydroxyethyl]-3,3-difluoro-2-oxo-2,3-dihydro-1H-indol-1-yl]methyl}pyridine-2-carbonitrile] had an IC50 (glycine uptake inhibition) of 88 nM.

On to `COc1nc(CN2C(=O)C(F)(F)c3c([C@H](C)O)cccc32)ccc1F` [Compound 246, 3,3-difluoro-1-[(5-fluoro-6-methoxypyridin-2-yl)methyl]-4-[(1S)-1-hydroxyethyl]-1,3-dihydro-2H-indol-2-one], for which the concentration for half-maximal inhibition (IC50) was 55 nM.

`CC(O)c1cccc2c1C(F)(F)C(=O)N2Cc1cccc(Cl)n1` (single isomer, unassigned) [Compound 4] came in with an IC50 (glycine uptake inhibition) of 6.5 nM. This lies in the single-digit nanomolar range.

The compound `C[C@H](O)c1cccc2c1C(F)(F)C(=O)N2Cc1cc(Cl)c(F)cn1` [Compound 250] had an IC50 of 9.8 nM.

In turn, `N#Cc1cc(CN2C(=O)C(F)(F)c3c(C(O)C(F)(F)F)cccc32)ccn1` (single isomer, unassigned) [Compound 21, 4-{[3,3-difluoro-2-oxo-4-(2,2,2-trifluoro-1-hydroxyethyl)-2,3-dihydro-1H-indol-1-yl]methyl}pyridine-2-carbonitrile] gave a concentration for half-maximal inhibition (IC50) (glycine uptake inhibition) of 71 nM.

Take `N#Cc1cccnc1CN1C(=O)C(F)(F)c2c(C(O)C(F)F)cccc21` (single isomer, unassigned) [Compound 259, 2-{[4-(2,2-difluoro-1-hydroxyethyl)-3,3-difluoro-2-oxo-2,3-dihydro-1H-indol-1-yl]methyl}pyridine-3-carbonitrile]: the IC50 (table section whose head prints (μm)) worked out at 1900 nM.

For `C[C@H](O)c1cccc2c1C(F)(F)C(=O)N2Cc1cnc(Cl)cn1` [Compound 199, 1-[(5-chloropyrazin-2-yl)methyl]-3,3-difluoro-4-[(1S)-1-hydroxyethyl]-1,3-dihydro-2H-indol-2-one], the 50% inhibitory concentration (IC50) worked out at 110 nM. That is a sub-micromolar value.

For orientation: IC50 means the concentration needed to halve the response being measured. A higher IC50 goes with lower potency.
